Laboratory results taken from patent publication US20210317092A1 (BAYER PHARMA AKTIENGESELLSCHAFT, priority 2016, published 2021).
Read-outs that look alike come from different tables or passages of the source.

Columns and labels:
IL-8 secretion = experiment: Inhibitory activity on Bradykinin B1 agonist-induced secretion of IL-8 in human IMR-90 cells; type: cell-based; conditions: 30 min compound, stimulated with 0.1 μM Lys-[Des-Arg9]Bradykinin and 0.1 μM Sar-[D-Phe8]-des-Arg9-Bradykinin for 5 hours
Excerpt: Inhibitory activity on Bradykinin B1 agonist-induced secretion of IL-6 and IL-8 in human IMR-90 cells
The effect of the compound examples on secretion of the cytokine IL-6 and IL-8 has been investigated in the human foetal lung fibroblast IMR-90 cell line. Here the induction of the cytokine secretion was induced by the Bradykinin B1 agonists Lys-[Des-Arg9]Bradykinin (CAS 71800-36-7, Tocris Bioscience) and Sar-[D-Phe8]-des-Arg9-Bradykinin (CAS 126959-88-4, Tocris Bioscience) leading to the activation of the Bradykinin B1-driven signalling pathway. This effect is indicative for a strong anti-inflammatory mode of action in kinin driven inflammation.
IMR-90 cells were cultured in Eagle's Minimum Essential Medium (EMEM) containing 2 mM L-glutamine, 1 g/L glucose, 1.5 g/L NaHCO3, 1 mM sodium pyruvate and non-essential amino acids (ATCC, 30-2003™) supplemented with 10% FBS (Biochrom, S0615) and 50 U/mL Penicillin, 50 μg/mL Streptomycin (PAA, P11-010). The assay was performed in EMEM and a cell density of […] IMR-90 cells/96-well. The compound examples have been serial diluted in 100% DMSO and evaluated at 8 different concentrations within the range of 3 nM and 10 μM and a final DMSO concentration of 0.4%. The IMR-90 cells have been incubated with the respective concentration of the compound for 30 min. The enhanced secretion of IL-6 and IL-8 was induced by the stimulation of these cells with 0.1 μM Lys-[Des-Arg9]Bradykinin (Tocris, catalogue no. 3225) and 0.1 μM Sar-[D-Phe8]-des-Arg9-Bradykinin (Tocris, catalogue no. 3230) for 5 hours at 37° C. and 5% C02. Further, cells have been treated with Lys-[Des-Arg9]Bradykinin and Sar-[D-Phe8]-des-Arg9-Bradykinin as neutral control and with 0.1% DMSO as inhibitor control. The amount of IL-6 and IL-8 in the supernatant was determined using the Human Prolnflammatory Panel II (4-Plex) (MSD, K15025B) according to manufacturer's instruction. Briefly, supernatants were added onto assay plates and incubated at room temperature for 1-2 h with vigorous shaking at 600 rpm. Detection antibodies were then added onto the supernatants and incubated at room temperature for an additional 1-2 h with vigorous shaking at 600 rpm. Plates were washed three times with phosphate-buffered saline (PBS; 137 mM NaCl, 2.7 mM KCl, 6.5 mM Na2HPO4, 1.7 mM KH2P04) containing 0.05% Tween-20 (Bio-Rad, 161-0781) and electrochemiluminescence detected using the MSD Sector Imager 6000 plate reader. The cell viability was measured using the CellTiter-Glo Luminescent Assay (Promega, G7571) following the manufacturers protocol. Briefly, the CellTiter-Glo Reagent was diluted with PBS (1:1) and added directly to cells. After incubation and shaking for 10 minutes luminescent signal was measured which is proportional to the amount of ATP present.
The effect of the compound on the amount of secreted cytokine has been calculated as 100/(measured cytokine concentration of neutral control-measured cytokine concentration of inhibitor control)*(measured cytokine concentration of compound dose-measured cytokine concentration of inhibitor control). IC50 values are determined using 4-parameter-fit.
The compound examples were tested in triplicates per plate and the inhibitory activity was determined as the relation between neutral and inhibitor control in percent. IC50 values were calculated using the 4-parameter logistic model.

[1] = target: T1, human Bradykinin B1 receptor (Homo sapiens, UniProt P46663); experiment: Calcium flux Assay (FLIPR) with recombinant CHO-K1 cells expressing human Bradykinin B1 receptor, in presence (hB1 IC50) or absence (hB1 free IC50) of 0.1% BSA; type: cell-based
T1 construct: host or cells: CHO-K1
T1 sequence (P46663 1-353): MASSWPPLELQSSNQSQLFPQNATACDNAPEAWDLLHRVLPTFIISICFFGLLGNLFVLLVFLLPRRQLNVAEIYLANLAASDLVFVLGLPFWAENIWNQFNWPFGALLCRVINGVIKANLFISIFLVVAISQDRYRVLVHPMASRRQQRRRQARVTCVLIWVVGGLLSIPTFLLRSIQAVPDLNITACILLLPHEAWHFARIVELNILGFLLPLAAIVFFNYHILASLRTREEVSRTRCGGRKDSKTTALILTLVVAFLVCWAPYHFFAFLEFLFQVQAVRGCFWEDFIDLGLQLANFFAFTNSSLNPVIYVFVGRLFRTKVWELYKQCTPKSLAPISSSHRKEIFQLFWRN

[2] = in absence of 0.1% BSA, read-out: hB1 free IC50
[3] = in presence of 0.1% BSA, read-out: hB1 IC50

SMILES	IC50 (IL-8 secretion) [nM]	IC50 [1, 2] [nM]	IC50 [1, 3] [nM]
COc1ccc(-c2ccc(NC(=O)C3(c4cccc(Cl)c4)CC3)cc2-c2nnn[nH]2)cc1OC [Example 1, 1-(3-Chlorophenyl)-N-[3′,4′-dimethoxy-2-(1H-tetrazol-5-yl)biphenyl-4-yl]cyclopropanecarboxamide]	60	3.35	22.6
CCOc1ccc(-c2ccc(NC(=O)C3(c4cccc(Cl)c4)CC3)cc2-c2nnn[nH]2)cn1 [Example 253, 1-(3-Chlorophenyl)-N-[4-(6-ethoxypyridin-3-yl)-3-(1H-tetrazol-5-yl)phenyl]cyclopropanecarboxamide]	75	16.1	33.5
